The values below come from US20130190268A1, “BIOTINYLATED POLYSACCHARIDES HAVING AN ANTITHROMBOTIC ACTIVITY AND IMPROVED METABOLIC STABILITY” (SANOFI, priority 2010, published 2013).

The structures appear in SMILES notation. Structures can show the parent of a compound that is named as a salt.

One series has as its target T1, biotinidase (Homo sapiens, UniProt P43251).
T1 construct: Ten individual batches of human plasma originating from 5 men and 5 women; from tissue; host or cells: pooled human plasma (5 men, 5 women), sodium citrate
T1 sequence (P43251 22-523): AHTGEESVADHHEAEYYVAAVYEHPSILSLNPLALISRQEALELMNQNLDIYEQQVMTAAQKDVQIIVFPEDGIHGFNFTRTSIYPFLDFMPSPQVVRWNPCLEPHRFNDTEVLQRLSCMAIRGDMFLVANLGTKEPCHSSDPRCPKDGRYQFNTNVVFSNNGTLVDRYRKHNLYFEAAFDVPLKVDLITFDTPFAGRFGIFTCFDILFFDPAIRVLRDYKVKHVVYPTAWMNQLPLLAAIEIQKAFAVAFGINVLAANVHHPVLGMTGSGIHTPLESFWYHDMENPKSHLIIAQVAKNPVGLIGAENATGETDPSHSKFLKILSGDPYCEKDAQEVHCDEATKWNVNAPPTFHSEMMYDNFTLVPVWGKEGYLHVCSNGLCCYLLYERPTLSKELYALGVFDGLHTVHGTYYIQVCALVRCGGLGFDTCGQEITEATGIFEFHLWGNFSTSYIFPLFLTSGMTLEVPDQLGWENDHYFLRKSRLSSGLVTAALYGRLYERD
In words: Metabolic stability in human plasma medium at pH 6.0 with respect to biotinidase activity. The conditions noted are these: pooled human plasma, pH 6.0, 1 μM, 37° C., LC/MS-MS. In kind it is in vitro ADME. On the procedure:
The metabolic stability of the compounds according to the invention with respect to biotinidase activity was studied on human plasma having been sampled on sodium citrate as anticoagulant. Ten individual batches of human plasma originating from 5 men and 5 women, constituting the evaluation matrix, were used and pooled in order to evaluate the metabolic stability of the compounds. The human plasma was incubated under the following conditions: • incubation medium (freshly prepared): 740 μl of 54 mM of sodium phosphate buffer, pH 6.0, containing 1.08 mM of disodium EDTA and 4.3 mM of cysteamine hydrochloride, • human plasma: 40 μl • concentrations of the compounds to be studied: 1 μM • incubation time: 24 hours • incubation temperature: 37° C.
The reaction is initiated by adding the compound to be studied, after a 10-minute period of preincubation of the plasma and of the incubation medium. At the end of the incubation period (24 hours), the reaction is stopped.
The compounds according to the invention are quantified according to a specific LC/MS-MS method.
The metabolization of each compound studied is measured by monitoring the disappearance of the unchanged product, the concentrations being determined for each incubation sample at time 0 hours and at time 24 hours, and the percentage metabolization being calculated according to the following formula: […]
The terms [compound at T 24H] and [compound at T 0H] correspond to the concentration of the compound to be studied in the reactive medium after 24 hours and before the beginning of the reaction, respectively.

The target in another series is avidin (Gallus gallus, UniProt P02701). Nature of the series: Neutralization with avidin: avidin-coated beads, centrifugation, anti-factor Xa activity assayed in supernatant. In kind it is binding. The conditions noted are these: after centrifugation. On the procedure: The resulting mixture is centrifuged and the anti-factor Xa activity is assayed in the supernatant.
avidin, sequence (P02701 25-152, species assumed): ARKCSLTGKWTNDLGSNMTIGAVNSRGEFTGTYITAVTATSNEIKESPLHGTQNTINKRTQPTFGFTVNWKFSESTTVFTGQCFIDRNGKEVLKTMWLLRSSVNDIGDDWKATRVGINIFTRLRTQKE

In series [1] the target is coagulation factor Xa, in the presence of antithrombin (Homo sapiens, UniProt P01008). Nature of the series: Antithrombin-dependent anti-factor Xa activity (in vitro inhibition of coagulation factor Xa). The conditions noted are these: read-out: IC50 (dose enabling 50% inhibition), anti-Xa activity (converted). In kind it is biochemical. From the text:
The activity of the compounds according to the invention was studied in an in vitro model of inhibition of coagulation factor Xa, in the presence of antithrombin (antithrombin-dependent anti-factor Xa activity), as described by J.-M. Herbert et al., Blood, 1998, 91, 4197-4205.

coagulation factor Xa, in the presence of antithrombin, sequence (P01008 33-464): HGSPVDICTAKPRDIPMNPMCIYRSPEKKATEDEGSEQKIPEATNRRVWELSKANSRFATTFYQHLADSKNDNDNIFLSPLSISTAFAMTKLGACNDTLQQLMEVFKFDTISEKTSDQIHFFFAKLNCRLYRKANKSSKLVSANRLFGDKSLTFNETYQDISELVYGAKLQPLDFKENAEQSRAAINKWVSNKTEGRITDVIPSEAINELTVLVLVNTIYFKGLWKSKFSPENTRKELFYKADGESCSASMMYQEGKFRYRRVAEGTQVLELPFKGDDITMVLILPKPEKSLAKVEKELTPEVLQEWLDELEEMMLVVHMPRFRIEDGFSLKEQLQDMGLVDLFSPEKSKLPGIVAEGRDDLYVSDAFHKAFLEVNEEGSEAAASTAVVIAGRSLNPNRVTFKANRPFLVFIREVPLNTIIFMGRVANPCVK

For the compound `COC1OC(COS(=O)(=O)O)C(OC2OC(C(=O)O)C(OC3OC(COS(=O)(=O)O)C(OC4OC(C(=O)O)C(OC5OC(COS(=O)(=O)O)C(OC)C(OC)C5NC(=O)CCCCCOCCCCCC5SCC6NC(=O)NC65)C(OC)C4OC)C(OS(=O)(=O)O)C3OS(=O)(=O)O)C(OC)C2OC)C(OS(=O)(=O)O)C1OS(=O)(=O)O` [Compound 1, Methyl (2-deoxy-3,4-di-O-methyl-2-{[6-({5-[(3aS,4S,6aR)-2-oxohexahydro-1H-thieno[3,4-d]imidazol-4-yl]pentyl}oxy)hexanoyl]amino}-6-O-sulfonato-α-D-glucopyranosyl)-(1→4)-(2,3-di-O-methyl-β-D-glucopyranosyluronate)-(1→4)-(2,3,6-tri-O-sulfonato-α-D-glucopyranosyl)-(1→4)-(2,3-di-O-methyl-α-L-idopyranosyluronate)-(1→4)-2,3,6-tri-O-sulfonato-α-D-glucopyranoside, sodium salt], the “metabolization percentage (compound metabolized after 24 h)” value (“metabolization percentage” below) on biotinidase is 1.7%. Besides, the “anti-factor Xa activity in the supernatant” value (shortened to “anti-factor Xa activity”) at avidin (0.00005 μg product/μg avidin) turned out to be 1.3 ± 0.9%; on avidin (0.0001 μg product/μg avidin), 5.6 ± 1.0%; on avidin (0.001 μg product/μg avidin), 6.0 ± 0.2%; at avidin (0.01 μg product/μg avidin), 6.8 ± 2.0%. Besides, the 50% inhibitory concentration (IC50) in series [1] was 10 nM.
For the compound `COC1OC(COS(=O)(=O)O)C(OC2OC(C(=O)O)C(OC3OC(COS(=O)(=O)O)C(OC4OC(C(=O)O)C(OC5OC(COS(=O)(=O)O)C(OC)C(OC)C5NC(=O)CCCCCN(C)CCCCCC5SCC6NC(=O)NC65)C(OC)C4OC)C(OS(=O)(=O)O)C3OS(=O)(=O)O)C(OC)C2OC)C(OS(=O)(=O)O)C1OS(=O)(=O)O` [Compound 2, Methyl (2-deoxy-3,4-di-O-methyl-2-{[6-(methyl{5-[(3aS,4S,6aR)-2-oxohexahydro-1H-thieno[3,4-d]imidazol-4-yl]pentyl}amino)hexanoyl]amino}-6-O-sulfonato-α-D-glucopyranosyl)-(1→4)-(2,3-di-O-methyl-β-D-glucopyranosyluronate)-(1→4)-(2,3,6-tri-O-sulfonato-α-D-glucopyranosyl)-(1→4)-(2,3-di-O-methyl-α-L-idopyranosyluronate)-(1→4)-2,3,6-tri-O-sulfonato-α-D-glucopyranoside, sodium salt], on biotinidase, the “metabolization percentage” value is −3.3%. The “anti-factor Xa activity” value on avidin (0.00005 μg product/μg avidin) is 4.9 ± 1.4%; on avidin (0.0001 μg product/μg avidin) it was 3.0 ± 0.7%; on avidin (0.001 μg product/μg avidin), 5.2 ± 0.5%; on avidin (0.01 μg product/μg avidin) it was 4.1 ± 0.2%. Further, the half-maximal inhibitory concentration (IC50) in series [1] is 9.93 nM.
As to `COC1OC(COS(=O)(=O)O)C(OC2OC(C(=O)O)C(OC3OC(COS(=O)(=O)O)C(OC4OC(C(=O)O)C(OC5OC(COS(=O)(=O)O)C(OC)C(OC)C5NC(=O)CCCCCN(C)C(=O)CCCCC5SCC6NC(=O)NC65)C(OC)C4OC)C(OS(=O)(=O)O)C3OS(=O)(=O)O)C(OC)C2OC)C(OS(=O)(=O)O)C1OS(=O)(=O)O` [Compound 3, Methyl (2-deoxy-3,4-di-O-methyl-2-{[6-(methyl{5-[(3aS,4S,6aR)-2-oxohexahydro-1H-thieno[3,4-d]imidazol-4-yl]pentanoyl}amino)hexanoyl]amino}-6-O-sulfonato-α-D-glucopyranosyl)-(1→4)-(2,3-di-O-methyl-β-D-glucopyranosyluronate)-(1→4)-(2,3,6-tri-O-sulfonato-α-D-glucopyranosyl)-(1→4)-(2,3-di-O-methyl-α-L-idopyranosyluronate)-(1→4)-2,3,6-tri-O-sulfonato-α-D-glucopyranoside, sodium salt], the “metabolization percentage” value on biotinidase is recorded as 0.8%. Also, the “anti-factor Xa activity” value on avidin (0.00005 μg product/μg avidin) is 0.7 ± 2.4%; at avidin (0.0001 μg product/μg avidin), 1.2 ± 0.6%; at avidin (0.001 μg product/μg avidin) it was 1.8 ± 0.2%; on avidin (0.01 μg product/μg avidin) it was 0.9%^(1). The IC50 in series [1] was 9.53 nM.
In the case of `COC1OC(COS(=O)(=O)O)C(OC2OC(C(=O)O)C(OC3OC(COS(=O)(=O)O)C(OC4OC(C(=O)O)C(OC5OC(COS(=O)(=O)O)C(OC)C(OC)C5NC(=O)CCCCNC(=O)NCCCCC5SCC6NC(=O)NC65)C(OC)C4OC)C(OS(=O)(=O)O)C3OS(=O)(=O)O)C(OC)C2OC)C(OS(=O)(=O)O)C1OS(=O)(=O)O` [Compound 4, Methyl (2-deoxy-3,4-di-O-methyl-2-({5-[({4-[(3aS,4S,6aR)-2-oxohexahydro-1H-thieno[3,4-d]imidazol-4-yl]butyl}carbamoyl)amino]pentanoyl}amino)-6-O-sulfonato-α-D-glucopyranosyl)-(1→4)-(2,3-di-O-methyl-β-D-glucopyranosyluronate)-(1→4)-(2,3,6-tri-O-sulfonato-α-D-glucopyranosyl)-(1→4)-(2,3-di-O-methyl-α-L-idopyranosyluronate)-(1→4)-2,3,6-tri-O-sulfonato-α-D-glucopyranoside, sodium salt], on biotinidase, the “metabolization percentage” value was determined as 5.3%. Further, the “anti-factor Xa activity” value on avidin (0.00005 μg product/μg avidin) is reported as 3.6 ± 1.2%; at avidin (0.0001 μg product/μg avidin) it was 2.5 ± 2.3%; on avidin (0.001 μg product/μg avidin), 4.5 ± 0.8%; at avidin (0.01 μg product/μg avidin), 2.4 ± 0.0%. The IC50 in series [1] was 9.22 nM.
Take `COC1OC(COS(=O)(=O)O)C(OC2OC(C(=O)O)C(OC3OC(COS(=O)(=O)O)C(OC4OC(C(=O)O)C(OC5OC(COS(=O)(=O)O)C(OC)C(OC)C5NC(=O)CCCCCNC(=O)CCCCC5SCC6NC(=O)NC65)C(OC)C4OC)C(OS(=O)(=O)O)C3OS(=O)(=O)O)C(OC)C2OC)C(OS(=O)(=O)O)C1OS(=O)(=O)O` (stereo not drawn) [Idrabiotaparinux, idrabiotaparinux, reference compound]: on biotinidase, the “metabolization percentage” value is given as 15.9%. Further, the “anti-factor Xa activity” value on avidin (0.00005 μg product/μg avidin) is 1.2 ± 0.0%; on avidin (0.0001 μg product/μg avidin) it was 2.5 ± 1.1%; on avidin (0.001 μg product/μg avidin) it was 2.6 ± 0.3%; on avidin (0.01 μg product/μg avidin), 5.2 ± 3.4%. The IC50 in series [1] is 9.49 nM.
